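Each compound was tested at five concentrations against cells in 96-well plates for 48 hours. The concentration for full growth arrest is given as TGI.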
Tests used:
Test in all cases: NCI-60 cell line screen, 48 h
MOLT-4 leukemia = tested on: MOLT-4 leukemia
UO-31 renal = tested on: UO-31 renal
OVCAR-5 ovarian = tested on: OVCAR-5 ovarian
HOP-92 NSCLC = tested on: HOP-92 NSCLC
ACHN renal = tested on: ACHN renal
HT29 colon = tested on: HT29 colon
HL-60(TB) leukemia = tested on: HL-60(TB) leukemia
MALME-3M melanoma = tested on: MALME-3M melanoma
HCT-116 colon = tested on: HCT-116 colon
SF-295 CNS = tested on: SF-295 CNS
NCI-H460 lung = tested on: NCI-H460 lung
NCI-H226 lung = tested on: NCI-H226 lung
MDA-MB-435 = tested on: MDA-MB-435
NCI-H522 lung = tested on: NCI-H522 lung
CAKI-1 renal = tested on: CAKI-1 renal
K-562 leukemia = tested on: K-562 leukemia
TK-10 renal = tested on: TK-10 renal
SF-268 CNS = tested on: SF-268 CNS
KM12 colon = tested on: KM12 colon
UACC-62 melanoma = tested on: UACC-62 melanoma
SR leukemia = tested on: SR leukemia
SNB-75 CNS = tested on: SNB-75 CNS
RPMI-8226 leukemia = tested on: RPMI-8226 leukemia
DU-145 prostate = tested on: DU-145 prostate
RXF 393 renal = tested on: RXF 393 renal
SW-620 colon = tested on: SW-620 colon
OVCAR-3 ovarian = tested on: OVCAR-3 ovarian
A549 NSCLC = tested on: A549 NSCLC
T-47D breast = tested on: T-47D breast
MDA-N = tested on: MDA-N
HCC-2998 colon = tested on: HCC-2998 colon
IGROV1 ovarian = tested on: IGROV1 ovarian
SNB-19 CNS = tested on: SNB-19 CNS
EKVX NSCLC = tested on: EKVX NSCLC
OVCAR-8 ovarian = tested on: OVCAR-8 ovarian
CCRF-CEM leukemia = tested on: CCRF-CEM leukemia
HS 578T breast = tested on: HS 578T breast
LOX IMVI melanoma = tested on: LOX IMVI melanoma
MDA-MB-231 breast = tested on: MDA-MB-231 breast
NCI/ADR-RES ovarian = tested on: NCI/ADR-RES ovarian
HOP-62 NSCLC = tested on: HOP-62 NSCLC
SK-MEL-28 melanoma = tested on: SK-MEL-28 melanoma
UACC-257 melanoma = tested on: UACC-257 melanoma
M14 melanoma = tested on: M14 melanoma
SK-OV-3 ovarian = tested on: SK-OV-3 ovarian
SF-539 CNS = tested on: SF-539 CNS
COLO 205 colon = tested on: COLO 205 colon
SK-MEL-5 melanoma = tested on: SK-MEL-5 melanoma
OVCAR-4 ovarian = tested on: OVCAR-4 ovarian
PC-3 prostate = tested on: PC-3 prostate
786-0 renal = tested on: 786-0 renal
NCI-H23 lung = tested on: NCI-H23 lung
SN12C renal = tested on: SN12C renal
MCF7 breast = tested on: MCF7 breast

SMILES: CCOC(=O)C(C)(C(=O)OCC)/C(Cl)=C\Cl
- TGI (MOLT-4 leukemia): > 100 µM
- TGI (UO-31 renal): > 100 µM
- TGI (OVCAR-5 ovarian): > 100 µM
- TGI (HOP-92 NSCLC): > 100 µM
- TGI (ACHN renal): > 100 µM
- TGI (HT29 colon): > 100 µM
- TGI (HL-60(TB) leukemia): > 100 µM
- TGI (MALME-3M melanoma): > 100 µM
- TGI (HCT-116 colon): > 100 µM
- TGI (SF-295 CNS): > 100 µM
- TGI (NCI-H460 lung): > 100 µM
- TGI (NCI-H226 lung): > 100 µM
- TGI (MDA-MB-435): > 100 µM
- TGI (NCI-H522 lung): > 100 µM
- TGI (CAKI-1 renal): > 100 µM
- TGI (K-562 leukemia): > 100 µM
- TGI (TK-10 renal): > 100 µM
- TGI (SF-268 CNS): > 100 µM
- TGI (KM12 colon): > 100 µM
- TGI (UACC-62 melanoma): > 100 µM
- TGI (SR leukemia): > 100 µM
- TGI (SNB-75 CNS): > 100 µM
- TGI (RPMI-8226 leukemia): > 100 µM
- TGI (DU-145 prostate): > 100 µM
- TGI (RXF 393 renal): > 100 µM
- TGI (SW-620 colon): > 100 µM
- TGI (OVCAR-3 ovarian): > 100 µM
- TGI (A549 NSCLC): > 100 µM
- TGI (T-47D breast): > 100 µM
- TGI (MDA-N): > 100 µM
- TGI (HCC-2998 colon): 0.988 µM
- TGI (IGROV1 ovarian): > 100 µM
- TGI (SNB-19 CNS): > 100 µM
- TGI (EKVX NSCLC): > 100 µM
- TGI (OVCAR-8 ovarian): > 100 µM
- TGI (CCRF-CEM leukemia): > 100 µM
- TGI (HS 578T breast): > 100 µM
- TGI (LOX IMVI melanoma): > 100 µM
- TGI (MDA-MB-231 breast): > 100 µM
- TGI (NCI/ADR-RES ovarian): > 100 µM
- TGI (HOP-62 NSCLC): > 100 µM
- TGI (SK-MEL-28 melanoma): > 100 µM
- TGI (UACC-257 melanoma): > 100 µM
- TGI (M14 melanoma): > 100 µM
- TGI (SK-OV-3 ovarian): > 100 µM
- TGI (SF-539 CNS): > 100 µM
- TGI (COLO 205 colon): > 100 µM
- TGI (SK-MEL-5 melanoma): > 100 µM
- TGI (OVCAR-4 ovarian): > 100 µM
- TGI (PC-3 prostate): > 100 µM
- TGI (786-0 renal): > 100 µM
- TGI (NCI-H23 lung): > 100 µM
- TGI (SN12C renal): > 100 µM
- TGI (MCF7 breast): > 100 µM

From PubChem BioAssay (NCI)
